Experimental data: paper PMC10140010 (Investigational New Drugs, 2023)
“And” between values parts separate entries of the source, which are not always exact repeats. Equal values may be shown once.

Key:
Experiment in all cases: Uptake substrate investigation in HEK293 cells expressing transporter
[1] = molecular target: T1, OATP1B1 (Homo sapiens, UniProt Q9Y6L6); assay type: in vitro ADME; conditions: for Ratio of uptake transit activity / Uptake transport activity, Net value: OATP1B1-293 vs MOCK293
T1 construct: No ESH6G27; host or cells: HEK293
T1 sequence (Q9Y6L6 1-691): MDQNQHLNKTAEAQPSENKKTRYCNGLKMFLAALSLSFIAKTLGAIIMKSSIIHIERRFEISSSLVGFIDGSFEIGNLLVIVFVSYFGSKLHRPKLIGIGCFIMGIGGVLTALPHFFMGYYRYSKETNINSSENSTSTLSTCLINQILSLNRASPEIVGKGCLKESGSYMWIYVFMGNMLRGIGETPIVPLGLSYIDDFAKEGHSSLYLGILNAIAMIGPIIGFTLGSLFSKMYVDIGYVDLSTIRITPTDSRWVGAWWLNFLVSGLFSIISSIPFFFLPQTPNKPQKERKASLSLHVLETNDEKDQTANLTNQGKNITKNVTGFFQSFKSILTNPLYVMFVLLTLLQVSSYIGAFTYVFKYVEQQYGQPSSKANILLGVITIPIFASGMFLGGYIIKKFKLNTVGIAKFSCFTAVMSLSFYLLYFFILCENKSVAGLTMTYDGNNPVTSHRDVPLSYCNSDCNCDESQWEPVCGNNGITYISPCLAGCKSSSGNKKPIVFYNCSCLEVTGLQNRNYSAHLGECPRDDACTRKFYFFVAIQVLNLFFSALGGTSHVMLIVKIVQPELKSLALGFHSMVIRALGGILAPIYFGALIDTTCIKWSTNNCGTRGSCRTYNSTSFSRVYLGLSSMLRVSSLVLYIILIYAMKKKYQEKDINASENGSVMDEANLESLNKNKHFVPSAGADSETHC
Description: (§1) The engineered NIH-3T3 (CD74-ROS1 fusion gene) cells was obtained from Nanjing GenScript Biotechnology Co., Ltd. The engineered Ba/F3 (SLC34A2-ROS1 fusion gene) cell line was obtained from Kyinno Biotechnology (Beijing) Co., Ltd. The HCC-78 (SLC34A2-ROS1 fusion gene) cell line was purchased from Shanghai Hongshun Biotechnology Co., Ltd. The engineered NIH-3T3 (CD74-ROS1 fusion gene) cells was obtained from Nanjing GenScript Biotechnology Co., Ltd. The engineered HEK293 cell lines with OATP1B1 (Lot. No ESH6G27), OATP1B3 (Lot. No ESH7G27), OCT2 (Lot. No ESH9G27), OAT1 (Lot. No ESHCG27), OAT3 (Lot. […] No ESHDG27) were purchased from GenoMembrane and validated using the specific substrate for each transporter. All cells were cultured at 37℃ in a 5% CO2 atmosphere. Cell culture reagents were obtained from Life Technologies, Inc. See Supplemental Table 1 for details on the source of the cell lines and the media used.

[2] = tested on: OATP1B3
Description: as §1

[3] = molecular target: T2, OATP1B3 (Homo sapiens, UniProt Q9NPD5); conditions: for Uptake transport activity, Mean: OATP1B3-293; for Uptake transport activity, Mean / Ratio of uptake transit activity / Uptake transport activity, Net value: Suppl. Table 11; for Ratio of uptake transit activity / Uptake transport activity, Net value: OATP1B3-293 vs MOCK293
T2 sequence (Q9NPD5 1-702): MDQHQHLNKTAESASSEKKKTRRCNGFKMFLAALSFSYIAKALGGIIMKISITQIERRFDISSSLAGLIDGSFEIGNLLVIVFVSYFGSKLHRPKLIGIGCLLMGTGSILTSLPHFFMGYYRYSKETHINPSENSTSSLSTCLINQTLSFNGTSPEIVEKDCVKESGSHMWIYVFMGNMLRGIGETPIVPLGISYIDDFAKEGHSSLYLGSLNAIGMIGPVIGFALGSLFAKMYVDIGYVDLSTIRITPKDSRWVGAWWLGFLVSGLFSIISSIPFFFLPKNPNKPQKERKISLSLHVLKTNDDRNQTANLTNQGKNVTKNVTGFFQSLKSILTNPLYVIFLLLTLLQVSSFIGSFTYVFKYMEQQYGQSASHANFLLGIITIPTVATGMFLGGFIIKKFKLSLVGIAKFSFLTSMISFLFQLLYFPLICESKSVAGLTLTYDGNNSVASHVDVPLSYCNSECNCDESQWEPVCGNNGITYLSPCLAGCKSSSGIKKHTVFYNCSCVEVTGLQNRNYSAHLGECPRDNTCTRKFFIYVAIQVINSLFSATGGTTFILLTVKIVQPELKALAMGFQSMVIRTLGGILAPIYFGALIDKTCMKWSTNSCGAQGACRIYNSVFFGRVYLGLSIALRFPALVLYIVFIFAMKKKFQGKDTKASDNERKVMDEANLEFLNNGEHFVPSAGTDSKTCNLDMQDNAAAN
Description: as §1

[4] = molecular target: T3, OCT2 (Homo sapiens, UniProt O15244); assay type: in vitro ADME; conditions: for Uptake transport activity, Mean / Ratio of uptake transit activity / Uptake transport activity, Net value: Suppl. Table 11; for Ratio of uptake transit activity / Uptake transport activity, Net value: OCT2-293 vs MOCK293
T3 construct: No ESH9G27; host or cells: HEK293
T3 sequence (O15244 1-555): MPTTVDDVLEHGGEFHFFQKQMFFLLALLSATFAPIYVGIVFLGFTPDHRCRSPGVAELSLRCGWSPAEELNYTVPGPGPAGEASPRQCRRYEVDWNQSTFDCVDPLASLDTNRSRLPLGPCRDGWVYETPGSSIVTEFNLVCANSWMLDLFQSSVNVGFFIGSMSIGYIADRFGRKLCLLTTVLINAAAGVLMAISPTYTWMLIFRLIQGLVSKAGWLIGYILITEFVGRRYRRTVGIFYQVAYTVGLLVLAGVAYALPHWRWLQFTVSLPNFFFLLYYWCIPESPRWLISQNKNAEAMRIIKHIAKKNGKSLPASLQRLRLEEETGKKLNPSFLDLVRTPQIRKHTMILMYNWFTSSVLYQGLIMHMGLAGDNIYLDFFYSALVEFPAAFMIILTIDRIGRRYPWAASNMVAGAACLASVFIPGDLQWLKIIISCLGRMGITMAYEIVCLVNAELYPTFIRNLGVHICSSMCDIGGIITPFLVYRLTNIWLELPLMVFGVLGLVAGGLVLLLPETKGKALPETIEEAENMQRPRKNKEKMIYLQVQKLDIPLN

[5] = MOCK293, test substrate 10 μM, no inhibitor, pre-test
[6] = OATP1B1-293, test substrate 10 μM, no inhibitor, pre-test
[7] = test substrate 10 μM, no inhibitor, pre-test
[8] = MOCK293, test substrate 10 μM, no inhibitor, OATP1B3 pre-test
[9] = OATP1B1-293 (so in the source), test substrate 10 μM, no inhibitor, OATP1B3 pre-test
[10] = transporter cells vs MOCK293, test substrate 10 μM, no inhibitor, OATP1B3 pre-test

Compound: COc1cc(N2CCC3(CCN(C)CC3)CC2)ccc1Nc1ncc(Cl)c(Nc2ccccc2P(C)(C)=O)n1 [Iruplinalkib]
- uptake transport activity ratio, OATP1B1 ([1]; 30 µM, 3 µM, 0.3 µM, HEK293): less than two
- uptake substrate of OATP1B1 ([1]; HEK293): not an uptake substrate
- Uptake transport activity, Mean ([1]; MOCK293 (OATP1B1 set), 0.3 μM, Suppl. Table 11): 7.468 pmol/mg protein/min
- Uptake transport activity, Mean ([1]; MOCK293 (OATP1B1 set), 3 μM, Suppl. Table 11): 54.18 pmol/mg protein/min
- Uptake transport activity, Mean ([1]; MOCK293 (OATP1B1 set), 30 μM, Suppl. Table 11): 601.2 pmol/mg protein/min
- Uptake transport activity, Mean [1, 5]: 102.0 pmol/mg protein/min
- Uptake transport activity, Repeat 1 / Repeat 2 [1, 5]: 100.4 pmol/mg protein/min and 103.6 pmol/mg protein/min
- Uptake transport activity, Mean ([1]; OATP1B1-293, 0.3 μM, Suppl. Table 11): 8.227 pmol/mg protein/min
- Uptake transport activity, Mean ([1]; OATP1B1-293, 3 μM, Suppl. Table 11): 46.74 pmol/mg protein/min
- Uptake transport activity, Mean ([1]; OATP1B1-293, 30 μM, Suppl. Table 11): 564.7 pmol/mg protein/min
- Uptake transport activity, Mean [1, 6]: 55.08 pmol/mg protein/min
- Uptake transport activity, Repeat 1 / Repeat 2 [1, 6]: 50.74 pmol/mg protein/min and 59.41 pmol/mg protein/min
- Ratio of uptake transit activity ([1]; 0.3 μM, Suppl. Table 11): 1.10
- Uptake transport activity, Net value ([1]; 0.3 μM, Suppl. Table 11): 0.759 pmol/mg protein/min
- Ratio of uptake transit activity ([1]; 3 μM, Suppl. Table 11): 0.86
- Uptake transport activity, Net value ([1]; 3 μM, Suppl. Table 11): -7.440 pmol/mg protein/min
- Ratio of uptake transit activity ([1]; 30 μM, Suppl. Table 11): 0.94
- Uptake transport activity, Net value ([1]; 30 μM, Suppl. Table 11): -36.47 pmol/mg protein/min
- Ratio of uptake transit activity [1, 7]: 0.54
- Uptake transport activity, Net value [1, 7]: -46.9 pmol/mg protein/min
- Uptake transport activity, Mean ([2]; MOCK293 (OATP1B3 set), 0.3 μM, Suppl. Table 11): 5.902 pmol/mg protein/min
- Uptake transport activity, Mean ([2]; MOCK293 (OATP1B3 set), 3 μM, Suppl. Table 11): 44.98 pmol/mg protein/min
- Uptake transport activity, Mean ([2]; MOCK293 (OATP1B3 set), 30 μM, Suppl. Table 11): 484.5 pmol/mg protein/min
- Uptake transport activity, Mean [2, 8]: 230.3 pmol/mg protein/min
- Uptake transport activity, Repeat 1 / Repeat 2 [2, 8]: 221.3 pmol/mg protein/min and 239.2 pmol/mg protein/min
- Uptake transport activity, Mean [2, 9]: 327.9 pmol/mg protein/min
- Uptake transport activity, Repeat 1 / Repeat 2 [2, 9]: 313.3 pmol/mg protein/min and 342.6 pmol/mg protein/min
- Ratio of uptake transit activity [2, 10]: 1.42
- Uptake transport activity, Net value [2, 10]: 97.7 pmol/mg protein/min
- uptake transport activity ratio, OATP1B3 ([3]; 30 µM, 3 µM, 0.3 µM, HEK293): less than two
- uptake substrate of OATP1B3 ([3]; HEK293): not an uptake substrate
- Uptake transport activity, Mean ([3]; 0.3 μM): 8.165 pmol/mg protein/min
- Uptake transport activity, Mean ([3]; 3 μM): 57.94 pmol/mg protein/min
- Uptake transport activity, Mean ([3]; 30 μM): 641.1 pmol/mg protein/min
- Ratio of uptake transit activity ([3]; 0.3 μM): 1.38
- Uptake transport activity, Net value ([3]; 0.3 μM): 2.263 pmol/mg protein/min
- Ratio of uptake transit activity ([3]; 3 μM): 1.29
- Uptake transport activity, Net value ([3]; 3 μM): 12.964 pmol/mg protein/min
- Ratio of uptake transit activity ([3]; 30 μM): 1.32
- Uptake transport activity, Net value ([3]; 30 μM): 156.58 pmol/mg protein/min
- uptake transport activity ratio, OCT2 ([4]; 30 µM, 3 µM, 0.3 µM, HEK293): less than two
- uptake substrate of OCT2 ([4]; HEK293): not an uptake substrate
- Uptake transport activity, Mean ([4]; MOCK293 (OCT2 set), 0.3 μM): 7.280 pmol/mg protein/min
- Uptake transport activity, Mean ([4]; MOCK293 (OCT2 set), 3 μM): 80.35 pmol/mg protein/min
- Uptake transport activity, Mean ([4]; MOCK293 (OCT2 set), 30 μM): 999.8 pmol/mg protein/min
- Uptake transport activity, Mean ([4]; OCT2-293, 0.3 μM): 8.178 pmol/mg protein/min
- Uptake transport activity, Mean ([4]; OCT2-293, 3 μM): 88.23 pmol/mg protein/min
- Uptake transport activity, Mean ([4]; OCT2-293, 30 μM): 1165.9 pmol/mg protein/min
- Ratio of uptake transit activity ([4]; 0.3 μM): 1.12
- Uptake transport activity, Net value ([4]; 0.3 μM): 0.90 pmol/mg protein/min
- Ratio of uptake transit activity ([4]; 3 μM): 1.10
- Uptake transport activity, Net value ([4]; 3 μM): 7.88 pmol/mg protein/min
- Ratio of uptake transit activity ([4]; 30 μM): 1.17
- Uptake transport activity, Net value ([4]; 30 μM): 166.05 pmol/mg protein/min
